Experimental data taken from ChEMBL document CHEMBL4354827, “Discovery of Novel, Potent, Brain-Permeable, and Orally Efficacious Positive Allosteric Modulator of α7 Nicotinic Acetylcholine Receptor [4-(5-(4-Chlorophenyl)-4-methyl-2-propionylthiophen-3-yl)benzenesulfonamide]: Structure-Activity Relationship and Preclinical Characterization” (J Med Chem, 2020).

Assays:
[1] = biological target: Neuronal acetylcholine receptor subunit alpha-7 (Homo sapiens, UniProt P36544); assay: Positive allosteric modulatory activity against alpha7 nAChR in human IMR-32 cells assessed as potentiation of PNU-282987-induced Ca2+ […] at 1 uM by FLIPR assay relative to control; format: cell-based
[2] = Drug metabolism in mouse liver microsomes assessed as metabolic rate at 1 uM preincubated for 5 mins followed by NADPH addition after 30 mins by LC-MS/MS analysis; format: ADME, Microsome; conditions: 0.5 h
[3] = Drug metabolism in rat liver microsomes assessed as metabolic rate at 1 uM preincubated for 5 mins followed by NADPH addition after 30 mins by LC-MS/MS analysis; format: ADME, Microsome; conditions: 0.5 h
[4] = Drug metabolism in dog liver microsomes assessed as metabolic rate at 1 uM preincubated for 5 mins followed by NADPH addition after 30 mins by LC-MS/MS analysis; format: ADME, Canis lupus familiaris, Microsome; conditions: 0.5 h
[5] = Drug metabolism in monkey liver microsomes assessed as metabolic rate at 1 uM preincubated for 5 mins followed by NADPH addition after 30 mins by LC-MS/MS analysis; format: ADME, Macaca mulatta, Microsome; conditions: rhesus monkey, 0.5 h
[6] = Drug metabolism in human pooled liver microsomes assessed as metabolic rate at 1 uM preincubated for 5 mins followed by NADPH addition after 30 mins by LC-MS/MS analysis; format: ADME, Microsome; conditions: 0.5 h
[7] = Metabolic stability in mouse liver microsomes assessed as compound remaining at 1 uM preincubated for 5 mins followed by NADPH addition and measured after 30 mins by LC-MS/MS analysis; format: ADME, Microsome; conditions: read-out: Stability
[8] = Metabolic stability in rat liver microsomes assessed as compound remaining at 1 uM preincubated for 5 mins followed by NADPH addition and measured after 30 mins by LC-MS/MS analysis; format: ADME, Microsome; conditions: read-out: Stability
[9] = Metabolic stability in dog liver microsomes assessed as compound remaining at 1 uM preincubated for 5 mins followed by NADPH addition and measured after 30 mins by LC-MS/MS analysis; format: ADME, Canis lupus familiaris, Microsome; conditions: read-out: Stability
[10] = Metabolic stability in monkey liver microsomes assessed as compound remaining at 1 uM preincubated for 5 mins followed by NADPH addition and measured after 30 mins by LC-MS/MS analysis; format: ADME, Macaca mulatta, Microsome; conditions: rhesus monkey, read-out: Stability
[11] = Metabolic stability in human pooled liver microsomes assessed as compound remaining at 1 uM preincubated for 5 mins followed by NADPH addition and measured after 30 mins by LC-MS/MS analysis; format: ADME, Microsome; conditions: read-out: Stability
[12] = Protein binding in rat plasma at 5 uM incubated for 16 hrs under shaking condition by LC/MS/MS based rapid equilibrium dialysis method; format: ADME, cell-free; conditions: read-out: PPB (converted)
[13] = Protein binding in human plasma at 5 uM incubated for 16 hrs under shaking condition by LC/MS/MS based rapid equilibrium dialysis method; format: ADME, cell-free; conditions: read-out: PPB (converted)
[14] = AUC (0 to 144 hrs) in Wistar rat at 1 mg/kg, iv after 0.083 to 144 hrs by LC-MS/MS analysis; format: ADME, organism-based; design: time < 144 hr, dose 1 mg/kg, route intravenous; conditions: in vivo
[15] = AUC (0 to 144 hrs) in Wistar rat at 10 mg/kg, po after 0.25 to 144 hrs by LC-MS/MS analysis; format: ADME, organism-based; design: dose 10 mg/kg, time < 144 hr, route oral; conditions: in vivo
[16] = AUClast in Beagle dog at 1 mg/kg, iv after 0.083 to 144 hrs by LC-MS/MS analysis; format: ADME, organism-based, Canis lupus familiaris; design: dose 1 mg/kg, time 0.083-144 hr, route intravenous; conditions: in vivo
[17] = AUClast in Beagle dog at 10 mg/kg, po after 0.25 to 144 hrs by LC-MS/MS analysis; format: ADME, organism-based, Canis lupus familiaris; design: time upper 144 hr, dose 10 mg/kg, time lower 0.25 hr, route oral; conditions: in vivo
[18] = Cmax in Wistar rat at 1 mg/kg, iv after 0.083 to 144 hrs by LC-MS/MS analysis; format: ADME, organism-based; design: dose 1 mg/kg, route intravenous; conditions: in vivo
[19] = Cmax in Wistar rat at 10 mg/kg, po after 0.25 to 144 hrs by LC-MS/MS analysis; format: ADME, organism-based; design: dose 10 mg/kg, route oral; conditions: in vivo
[20] = Cmax in Beagle dog at 1 mg/kg, iv after 0.083 to 144 hrs by LC-MS/MS analysis; format: ADME, organism-based, Canis lupus familiaris; design: dose 1 mg/kg, route intravenous; conditions: in vivo
[21] = Cmax in Beagle dog at 10 mg/kg, po after 0.25 to 144 hrs by LC-MS/MS analysis; format: ADME, organism-based, Canis lupus familiaris; design: dose 10 mg/kg, route oral; conditions: in vivo
[22] = Tmax in Wistar rat at 1 mg/kg, iv after 0.083 to 144 hrs by LC-MS/MS analysis; format: ADME, organism-based; conditions: in vivo
[23] = Tmax in Wistar rat at 10 mg/kg, po after 0.25 to 144 hrs by LC-MS/MS analysis; format: ADME, organism-based; conditions: in vivo
[24] = Tmax in Beagle dog at 1 mg/kg, iv after 0.083 to 144 hrs by LC-MS/MS analysis; format: ADME, organism-based, Canis lupus familiaris; conditions: in vivo
[25] = Tmax in Beagle dog at 10 mg/kg, po after 0.25 to 144 hrs by LC-MS/MS analysis; format: ADME, organism-based, Canis lupus familiaris; conditions: in vivo
[26] = Half life in Wistar rat at 1 mg/kg, iv after 0.083 to 144 hrs by LC-MS/MS analysis; format: ADME, organism-based; conditions: in vivo
[27] = Half life in Beagle dog at 1 mg/kg, iv after 0.083 to 144 hrs by LC-MS/MS analysis; format: ADME, organism-based, Canis lupus familiaris; conditions: in vivo
[28] = Clearance in Wistar rat at 1 mg/kg, iv after 0.083 to 144 hrs by LC-MS/MS analysis; format: ADME, organism-based; conditions: Wistar, in vivo
[29] = Clearance in Beagle dog at 1 mg/kg, iv after 0.083 to 144 hrs by LC-MS/MS analysis; format: ADME, organism-based, Canis lupus familiaris; conditions: Beagle, in vivo
[30] = Volume of distribution at steady state in Wistar rat at 1 mg/kg, iv after 0.083 to 144 hrs by LC-MS/MS analysis; format: ADME, organism-based; conditions: in vivo, read-out: Vdss
[31] = Volume of distribution at steady state in Beagle dog at 1 mg/kg, iv after 0.083 to 144 hrs by LC-MS/MS analysis; format: ADME, organism-based, Canis lupus familiaris; conditions: in vivo, read-out: Vdss
[32] = Oral bioavailability in Wistar rat at 10 mg/kg after 0.25 to 144 hrs by LC-MS/MS analysis; format: ADME, organism-based; conditions: in vivo
[33] = Oral bioavailability in Beagle dog at 10 mg/kg after 0.25 to 144 hrs by LC-MS/MS analysis; format: ADME, organism-based, Canis lupus familiaris; conditions: in vivo

Neuronal acetylcholine receptor subunit alpha-7, sequence (P36544 whole entry): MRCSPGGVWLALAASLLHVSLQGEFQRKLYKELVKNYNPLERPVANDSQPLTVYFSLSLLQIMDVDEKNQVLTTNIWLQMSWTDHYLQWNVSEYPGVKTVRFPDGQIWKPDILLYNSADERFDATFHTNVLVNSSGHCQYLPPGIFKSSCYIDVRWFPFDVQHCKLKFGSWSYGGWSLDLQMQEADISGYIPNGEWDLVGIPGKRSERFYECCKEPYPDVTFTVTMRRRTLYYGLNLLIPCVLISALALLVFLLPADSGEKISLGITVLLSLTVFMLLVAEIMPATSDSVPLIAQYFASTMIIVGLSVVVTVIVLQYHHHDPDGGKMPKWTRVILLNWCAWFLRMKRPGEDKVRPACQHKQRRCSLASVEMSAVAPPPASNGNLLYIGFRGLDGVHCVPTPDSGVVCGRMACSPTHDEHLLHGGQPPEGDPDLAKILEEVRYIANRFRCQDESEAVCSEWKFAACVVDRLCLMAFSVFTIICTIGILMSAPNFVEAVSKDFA

Compound: Cc1c(-c2ccc(Cl)cc2)sc(C(=O)N2CCCCC2)c1-c1ccc(S(N)(=O)=O)cc1
- fold change (FC) [1]: 1

Compound: CCC(=O)c1sc(-c2cccc(Cl)c2)c(C)c1-c1ccc(S(N)(=O)=O)cc1
- fold change (FC) [1]: 1

Compound: CCCN(CCO)C(=O)c1sc(-c2ccc(Cl)cc2)c(C)c1-c1ccc(S(N)(=O)=O)cc1
- fold change (FC) [1]: 1

Compound: CCC(=O)c1sc(-c2ccoc2)c(C)c1-c1ccc(S(N)(=O)=O)cc1
- fold change (FC) [1]: 1

Compound: CCC(=O)c1sc(-c2ccncc2)c(C)c1-c1ccc(S(N)(=O)=O)cc1
- fold change (FC) [1]: 1

Compound: CCC(=O)c1sc(-c2ccc(C(F)(F)F)cc2)c(C)c1-c1ccc(S(N)(=O)=O)cc1
- fold change (FC) [1]: 15.3

Compound: CCC(=O)c1sc(-c2ccc(C3CC3)cc2)c(C)c1-c1ccc(S(N)(=O)=O)cc1
- fold change (FC) [1]: 7

Compound: CCC(=O)c1sc(-c2ccccc2)c(C)c1-c1ccc(S(N)(=O)=O)cc1
- fold change (FC) [1]: 2.4

Compound: CCC(=O)c1sc(-c2ccc(C(C)(C)C)cc2)c(C)c1-c1ccc(S(N)(=O)=O)cc1
- fold change (FC) [1]: 1

Compound: CCC(=O)c1sc(-c2ccc(Cl)cc2Cl)c(C)c1-c1ccc(S(N)(=O)=O)cc1
- fold change (FC) [1]: 12

Compound: CCC(=O)c1sc(-c2ccc(OC)cc2)c(C)c1-c1ccc(S(N)(=O)=O)cc1
- fold change (FC) [1]: 22
- Drug metabolism [2]: 0.03 nmol/min/mg
- Drug metabolism [3]: 0.01 nmol/min/mg
- Drug metabolism [4]: 0.02 nmol/min/mg
- Drug metabolism [5]: 0.05 nmol/min/mg
- Drug metabolism [6]: 0.03 nmol/min/mg
- remaining at 0.5 h, 1 µM [7]: 78%
- remaining at 0.5 h, 1 µM [8]: 97%
- remaining at 0.5 h, 1 µM [9]: 84%
- remaining at 0.5 h, 1 µM [10]: 67%
- remaining at 0.5 h, 1 µM [11]: 81%
- fraction unbound at 16 h, 5 µM [12]: 0.003
- fraction unbound at 16 h, 5 µM [13]: 0.002
- AUC(0-t) at 144 h [14]: 1.3 µM·h
- AUC(0-t) at 144 h [15]: 8.2 µM·h
- AUC(0-t) [16]: 3.2 µM·h
- AUC(0-t) [17]: 1.3 µM·h
- Cmax [18]: 900 nM
- Cmax [19]: 3000 nM
- Cmax [20]: 2300 nM
- Cmax [21]: 400 nM
- Tmax [22]: 4.8 min
- Tmax [23]: 2 h
- Tmax [24]: 15 min
- Tmax [25]: 1.17 h
- half-life [26]: 84 min
- half-life [27]: 120 min
- clearance [28]: 31 mL/min/kg
- clearance [29]: 12 mL/min/kg
- Vd [30]: 3 L/kg
- Vd [31]: 2 L/kg
- bioavailability [32]: 63%
- bioavailability [33]: 4%

Compound: CCC(=O)c1sc(-c2ccc(F)cc2)c(C)c1-c1ccc(S(N)(=O)=O)cc1
- fold change (FC) [1]: 8.7

Compound: CC(=O)c1sc(-c2ccc(Cl)cc2)c(C)c1-c1ccc(S(N)(=O)=O)cc1
- fold change (FC) [1]: 7

Compound: Cc1c(-c2ccc(Cl)cc2)sc(C(=O)N(C)C)c1-c1ccc(S(N)(=O)=O)cc1
- fold change (FC) [1]: 1

Compound: CCC(=O)c1sc(-c2ccccc2Cl)c(C)c1-c1ccc(S(N)(=O)=O)cc1
- fold change (FC) [1]: 1

Compound: CCOc1ccc(-c2sc(C(=O)CC)c(-c3ccc(S(N)(=O)=O)cc3)c2C)cc1
- fold change (FC) [1]: 6

Compound: CCC(=O)c1sc(-c2ccc(N(C)C)cc2)c(C)c1-c1ccc(S(N)(=O)=O)cc1
- fold change (FC) [1]: 19
